Data from patent US20250134860A1, “NOVEL COMPOUND, AND COMPOSITION FOR PREVENTING, ALLEVIATING OR TREATING BACTERIAL INFLAMMATION AND INFLAMMASOME-MEDIATED DISEASES, COMPRISING SAME AS ACTIVE INGREDIENT” (Quorum Bio Co., Ltd., priority 2022, published 2025).
Several values for one entry are separate records, joined by “and”; a condition that tells them apart may be missing. Identical values can stand only once. Blank lines part the entries; values can stand above or below the molecule they belong to.

Legend:
[1] = system: Sprague-Dawley rat bone marrow cells; assay: Rat micronucleus test; conditions: positive control 20 mg/kg/day P.O., 24 hours after dosing
Protocol: Hair was removed from the administration site (subcutaneous) of the SD rats, the administration concentration of the example compounds were set to a low dose (500 mg/kg/day), a medium dose (1000 mg/kg/day), and a high dose (2000 mg/kg/day), and administered subcutaneously to the left and right […] of the test system (10 ml/kg/day each), and the compound was administered subcutaneously in divided doses to the left and right […] of the test system (10 ml/kg/day each).
24 hours after the second administration of the test substance, the femur was removed from each group to collect bone marrow cells. 0.5 mL of 10% neutral formalin was added to the bone marrow cell suspension, fixed for 5 minutes, centrifuged for 5 minutes (4° C., 1,000 rpm, Micro17TR, Hanil Science Industrial, Republic of Korea) to remove the supernatant. Then, 0.3 mL of 10% neutral formalin was added to the precipitated bone marrow cells, suspended, filtered through a cell strain, and transferred to a storage tube. The fixed bone marrow cell suspension was dropped onto a cover glass, and then covered with a slide glass coated with 20 μL of 0.05% acridine orange to prepare an observation slide. The observation slide was observed under a microscope (600× magnification, BX51, Olympus, Japan).
As an indicator of bone marrow cell proliferation inhibition, 500 total red blood cells per individual were observed, and the ratio of polychromatic red blood cells to total red blood cells (PCE/(PCE+NCE)) was calculated. As a positive control, cyclophosphamide (Cas No: 50-18-0) was administered at a dose of 20 mg/kg/day.

[2] = General symptoms and body weight in the rat micronucleus study; assay type: in vivo; conditions: positive control 20 mg/kg/day P.O.
Protocol: In addition, body weight was measured on the day of administration start and bone marrow collection to confirm presence/absence of changes due to administration of the substance, and the results are shown in Table 4 below.

P. gingivalis = assay: Inhibitory effect on P. gingivalis biofilm formation (crystal violet, OD590nm); assay type: cell-based, Porphyromonas gingivalis; conditions: 48 hours; for biofilm formation of P. gingivalis increased by DPD: DPD 10 μM + compound 0.002, 0.02, 0.2, 2 μM, anaerobic, OD590nm
[3] = system: gingipain genes (rgpA, rgpB, kgp); assay: Inhibitory effect on gingipain expression of P. gingivalis (RT-qPCR); assay type: cell-based, Porphyromonas gingivalis; conditions: 48 hours
Protocol: The compounds of Examples were respectively treated onto the medium cultured with P. gingivalis, and the expression levels of three gingipain proteins (lysine-gingipain (Kgp), arginine-gingipain A (RgpA), and arginine-gingipain B (RgpB)) produced by P. gingivalis, which are major virulence factors and proteolytic enzymes, were confirmed.
The culture medium containing 10 μM of DPD (4,5-dihydroxy-2,3-pentane dione), which is a precursor of the bacterial signal substance (Autoinducer-2), and the culture medium containing 2 μM of the example compound or not were respectively dispensed into a cell culture plate (48 well plate), and then P. gingivalis (2×10^8 cell/ml) were inoculated for each group. The culture medium cultured with bacteria was cultured at 37° C. under anaerobic conditions (10% H2, 10% CO2, and 80% N2) for 48 hours.
After 48 hours, each culture medium was centrifuged at 13,000 rpm for 1 minute to remove the supernatant, and total RNA was extracted using easy-BLUE™ Total RNA Extraction kit (iNtRON Biotechnology, Sungnam, Korea) to synthesize cDNA, and then the expression of the gingipain gene was confirmed by real-time PCR method. cDNA was synthesized using AccuPower® CycleScript RT PreMix dN6 (Bioneer, Daejeon, Korea), and real-time (quantitative) reverse transcription PCR (RT-qPCR) was carried out using Power SYBR™ Green PCR Master Mix (Applied Biosystems, Foster City, CA, USA).
RT-qPCR amplification conditions were as follows: after enzyme activation at 95° C. for 3 minutes, denaturation at 95° C. for 10 seconds and primer annealing at 60° C. for 30 seconds were repeated 40 times, and analysis was performed using a Bio-Rad CFX Connect Real-Time PCR Detection System (Bio-Rad, Hercules, CA, USA). To normalize the expression level of the gingipain gene, the 16s rRNA gene was used, and the gene expression level was calculated using the Comparative Ct Method (ΔΔCt), which is shown in FIGS. 5a to 5c.

[4] = Plasma stability in rat plasma (LC-MS/MS); assay type: in vitro ADME; conditions: 37° C., 0, 30, 60, 120, 240 minutes
Protocol: (§1) The compounds of Examples 1-2 and Comparative Example, and the substance used as the positive control (Eucatropine, Loterpresnol) were dissolved in DMSO to prepare a stock solution having a concentration of 10 mM. The stock solution of each test substance was then diluted to prepare 0.2 mM and 1 mM working solutions and used for the test (For the comparative example compound, 70% acetonitrile was used as a solvent, and for the compound of Example 1-2, 50% acetonitrile was used as a solvent).
(§2) The positive control and the standard solution of the test substance were placed in tubes containing two types of plasma (human and rat) at concentrations of 1 μM and 5 μM, respectively, and then incubated at 37° C. for a prescribed time (0, 30, 60, 120, 240 minutes) while shaking and mixing. At each time point, the mixture sample was dispensed in 100 μl increments into a cell culture plate (96-well plate) containing 400 μl of quench reagent to terminate the test, After centrifugation (5000×g, 10 min), 100 μl of the supernatant was taken out, mixed with 200 μl of ultrapure water, and the solution was then injected into a LC-MS/MS system to analyze the drug in each time zone. Thereby, the plasma stability of the compounds of Comparative Example and Example 1-2 was evaluated.

[5] = Plasma stability in human plasma (LC-MS/MS); assay type: in vitro ADME; conditions: 37° C., 0, 30, 60, 120, 240 minutes
Protocol: as §1, §2

Compound: O=P1(N(CCCl)CCCl)NCCCO1 (stereo not shown) [CPA, cyclophosphamide]
MNPCE/PCE, %(Mean) ([1]; group mean): 3.060% | PCE/(PCE+NCE), %(Mean) ([1]; group mean): 33.5% | PCE/(PCE+NCE): PCE count ([1]; individual animals, per 500 total red blood cells): 166 and 170 | MNPCE/PCE: MNPCE count ([1]; individual animals, per 4,000 PCE): 150 and 154 and 167 (2×) | Body weight (g) 1 day after 2nd dosing, Mean ([2]; administered once, group mean): 278.9 g | Body weight (g) 1 day after 2nd dosing ([2]; administered once, individual animals 1501-1505): 279.4 g and 281.5 g | Body weight (g) before 1st dosing, Mean ([2]; group mean): 266.8 g | Body weight (g) before 1st dosing ([2]; individual animals 1501-1505): 282.2 g

Compound: CC(=O)C(=O)C(O)CO (stereo not shown) [DPD, 4,5-dihydroxy-2,3-pentanedione, reference compound]
biofilm formation of P. gingivalis (P. gingivalis; DPD 10 μM alone compared to medium with PBS (CT)): significantly increased | expression levels of three gingipain genes (rgpA, rgpB, kgp) ([3]; DPD 10 μM alone compared with untreated control): increased more than in the control group

amount of the compound remaining in the plasma [4]: decreased over time | amount of the compound remaining in the plasma [5]: decreased over time
Compound: O=C1O/C(=C(\Br)c2ccccc2)c2ccccc21 [Comparative Example, (Z)-3-(bromo (phenyl)methylene) isobenzofuran-1 (3H)-one, reference compound]
biofilm formation of P. gingivalis increased by DPD (P. gingivalis): inhibited in a concentration-dependent manner

Compound: COc1ccc(C(=C2c3ccccc3C(=O)N2C)c2ccc(OC)cc2)cc1 [Example 1-3, 3-(bis(4-methoxyphenyl)methylene)-2-methylisoindolin-1-one]
biofilm formation of P. gingivalis increased by DPD (P. gingivalis): inhibited in a concentration-dependent manner

Compound: CN1C(=O)c2ccccc2C1=C(c1ccccc1)c1ccccc1 [Example 1-1, 3-(diphenylmethylene)-2-methylisoindolin-1-one]
biofilm formation of P. gingivalis increased by DPD (P. gingivalis): inhibited in a concentration-dependent manner | expression levels of three gingipain genes (rgpA, rgpB, kgp) increased by DPD ([3]; DPD 10 μM + compound 2 μM, normalized to 16s rRNA): reduced
